As usually defined, the IC50 is the point on the concentration scale where inhibition reaches its midpoint.

Each structure is given as a SMILES string.

This assay deals with T1, fibroblast activation protein (FAP) (Homo sapiens, UniProt Q12884).
T1 sequence (Q12884 1-760): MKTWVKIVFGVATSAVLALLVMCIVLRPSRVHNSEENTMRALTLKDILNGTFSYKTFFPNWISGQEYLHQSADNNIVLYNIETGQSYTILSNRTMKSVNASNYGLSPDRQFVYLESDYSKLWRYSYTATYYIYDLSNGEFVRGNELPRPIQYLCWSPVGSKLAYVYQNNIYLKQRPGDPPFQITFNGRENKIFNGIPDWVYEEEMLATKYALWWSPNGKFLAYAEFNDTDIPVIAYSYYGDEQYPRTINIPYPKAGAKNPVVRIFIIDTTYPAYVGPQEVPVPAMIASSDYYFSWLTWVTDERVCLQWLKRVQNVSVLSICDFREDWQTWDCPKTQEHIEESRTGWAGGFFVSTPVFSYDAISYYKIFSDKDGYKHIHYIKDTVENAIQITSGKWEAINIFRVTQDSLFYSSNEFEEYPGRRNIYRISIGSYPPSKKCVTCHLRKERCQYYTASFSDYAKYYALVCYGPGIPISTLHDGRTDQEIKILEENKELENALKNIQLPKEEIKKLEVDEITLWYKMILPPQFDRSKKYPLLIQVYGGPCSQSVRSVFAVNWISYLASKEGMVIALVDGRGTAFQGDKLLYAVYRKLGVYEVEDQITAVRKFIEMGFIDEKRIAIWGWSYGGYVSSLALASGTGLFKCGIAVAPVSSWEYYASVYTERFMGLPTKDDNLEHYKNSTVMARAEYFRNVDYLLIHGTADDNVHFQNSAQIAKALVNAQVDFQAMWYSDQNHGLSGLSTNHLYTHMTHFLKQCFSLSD
Briefly: unlabelled competitor ([…] concentrations) displacing […]-iFAP from HCT116 cells. The class given is cell-based.

In the case of `C[C@H](NC(=O)c1ccc(NNC(=S)Nc2ccc(CC3CN(CC(=O)O)CCN(CC(=O)O)CCN(CC(=O)O)CCN3CC(=O)O)cc2)nc1)C(=O)N1CCC[C@@H]1B(O)O` (stereo partly drawn) [DOTA-iFAP, 2,2′,2″,2‴-(2-(4-(2-(5-(((S)-1-((S)-2-boronopyrrolidin-1-yl)-1-oxopropan-2-yl)carbamoyl)pyridin-2-yl)hydrazine-1-carbothioamido)benzyl)-1,4,7,10-tetraazacyclododecane-1,4,7,10-tetrayl)tetraacetic acid], the IC50 came out at 0.57 nM.
